According to patent US12492188B2, “1H-benzo[D]imidazole derivatives as TLR9 inhibitors for the treatment of fibrosis” (BRISTOL-MYERS SQUIBB COMPANY, priority 2020, dated 2025):
Where two headings read alike, the source gives them in different places.

Tests used:
Format in all cases: cell-based
[1] = target: T1, human TLR7 (Homo sapiens, UniProt Q9NYK1); test: TLR7 inhibition reporter assay (HEK-Blue cells, secreted embryonic alkaline phosphatase reporter); settings: HEK-Blue cells overexpressing human TLR7, stimulated with gardiquimod 7.5 μM; read-out: TLR 7 IC50
T1 construct: host or cells: HEK-Blue cells (HEK293-derived reporter line)
T1 sequence (Q9NYK1 27-1049): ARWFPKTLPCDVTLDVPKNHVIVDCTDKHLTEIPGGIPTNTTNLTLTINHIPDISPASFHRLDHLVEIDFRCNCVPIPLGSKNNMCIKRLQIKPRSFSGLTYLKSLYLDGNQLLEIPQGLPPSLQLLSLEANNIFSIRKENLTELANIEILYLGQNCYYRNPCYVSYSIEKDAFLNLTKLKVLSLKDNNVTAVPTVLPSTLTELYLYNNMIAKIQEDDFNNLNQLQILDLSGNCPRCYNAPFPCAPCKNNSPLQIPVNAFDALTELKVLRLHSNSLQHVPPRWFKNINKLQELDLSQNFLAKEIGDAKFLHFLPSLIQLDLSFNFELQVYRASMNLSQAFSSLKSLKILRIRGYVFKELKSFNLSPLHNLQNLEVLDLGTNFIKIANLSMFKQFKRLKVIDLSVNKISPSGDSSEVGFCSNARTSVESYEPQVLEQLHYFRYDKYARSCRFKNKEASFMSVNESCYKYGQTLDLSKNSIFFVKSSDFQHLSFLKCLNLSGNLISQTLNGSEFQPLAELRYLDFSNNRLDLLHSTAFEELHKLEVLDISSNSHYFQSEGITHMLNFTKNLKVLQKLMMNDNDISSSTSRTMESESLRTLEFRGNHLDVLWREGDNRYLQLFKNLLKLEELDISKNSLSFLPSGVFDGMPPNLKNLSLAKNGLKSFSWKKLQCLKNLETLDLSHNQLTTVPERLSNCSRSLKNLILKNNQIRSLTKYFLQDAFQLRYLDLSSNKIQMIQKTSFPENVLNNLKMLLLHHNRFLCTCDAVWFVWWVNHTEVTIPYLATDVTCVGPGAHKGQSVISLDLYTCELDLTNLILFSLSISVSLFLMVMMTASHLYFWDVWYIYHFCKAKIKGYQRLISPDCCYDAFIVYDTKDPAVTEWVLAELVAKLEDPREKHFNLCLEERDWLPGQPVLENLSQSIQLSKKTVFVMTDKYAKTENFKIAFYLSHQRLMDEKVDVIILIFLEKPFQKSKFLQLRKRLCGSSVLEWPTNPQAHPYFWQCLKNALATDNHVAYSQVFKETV
How it was run: (§1)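 Agonist-driven SEAP output was measured in HEK-Blue reporter cells carrying human TLR7 (gardiquimod 7.5 μM), TLR8 (R848 15.9 μM) or TLR9 (ODN2006 5 nM). Compounds at 0.05 nM–50 μM final were added 30 min before stimulation at room temperature. After 22 h at 37 °C, percent inhibition was taken against agonist/DMSO wells and a reference inhibitor.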

[2] = target: T2, human TLR9 (Homo sapiens, UniProt Q9NR96); test: TLR9 inhibition reporter assay (HEK-Blue cells, secreted embryonic alkaline phosphatase reporter)
T2 construct: host or cells: HEK-Blue cells (HEK293-derived reporter line)
T2 sequence (Q9NR96 26-1032): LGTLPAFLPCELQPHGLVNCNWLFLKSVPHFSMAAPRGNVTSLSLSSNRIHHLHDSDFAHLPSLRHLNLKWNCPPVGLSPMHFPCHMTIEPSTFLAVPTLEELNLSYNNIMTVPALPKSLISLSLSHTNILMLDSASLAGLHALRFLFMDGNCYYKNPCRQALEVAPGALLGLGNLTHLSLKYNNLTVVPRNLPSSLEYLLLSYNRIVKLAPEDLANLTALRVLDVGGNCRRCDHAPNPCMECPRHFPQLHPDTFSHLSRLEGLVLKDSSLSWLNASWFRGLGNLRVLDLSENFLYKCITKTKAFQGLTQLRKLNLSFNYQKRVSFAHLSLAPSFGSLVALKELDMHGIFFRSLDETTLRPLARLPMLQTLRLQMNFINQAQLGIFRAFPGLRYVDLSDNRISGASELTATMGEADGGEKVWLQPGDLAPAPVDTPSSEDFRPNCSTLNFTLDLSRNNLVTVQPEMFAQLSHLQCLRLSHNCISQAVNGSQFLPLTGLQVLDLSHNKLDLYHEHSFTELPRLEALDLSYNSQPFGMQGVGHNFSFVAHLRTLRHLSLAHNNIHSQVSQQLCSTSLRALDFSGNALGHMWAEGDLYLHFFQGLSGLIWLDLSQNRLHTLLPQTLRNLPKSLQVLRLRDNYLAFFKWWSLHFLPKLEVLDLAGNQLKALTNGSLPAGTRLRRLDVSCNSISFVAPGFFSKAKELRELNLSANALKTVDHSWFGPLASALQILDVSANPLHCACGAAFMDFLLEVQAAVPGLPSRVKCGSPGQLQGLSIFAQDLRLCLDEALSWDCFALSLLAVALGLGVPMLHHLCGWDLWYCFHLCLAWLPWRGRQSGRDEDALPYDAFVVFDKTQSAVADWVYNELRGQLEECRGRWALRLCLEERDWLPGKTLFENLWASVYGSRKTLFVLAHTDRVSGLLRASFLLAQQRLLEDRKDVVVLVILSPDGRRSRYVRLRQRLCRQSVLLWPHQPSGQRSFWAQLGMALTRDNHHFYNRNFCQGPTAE
How it was run: as §1

[3] = target: T3, human TLR8 (Homo sapiens, UniProt Q9NR97); test: TLR8 inhibition reporter assay (HEK-Blue cells, secreted embryonic alkaline phosphatase reporter); settings: HEK-Blue cells overexpressing human TLR8, stimulated with R848 15.9 μM; read-out: TLR 8 IC50
T3 construct: host or cells: HEK-Blue cells (HEK293-derived reporter line)
T3 sequence (Q9NR97 27-1041): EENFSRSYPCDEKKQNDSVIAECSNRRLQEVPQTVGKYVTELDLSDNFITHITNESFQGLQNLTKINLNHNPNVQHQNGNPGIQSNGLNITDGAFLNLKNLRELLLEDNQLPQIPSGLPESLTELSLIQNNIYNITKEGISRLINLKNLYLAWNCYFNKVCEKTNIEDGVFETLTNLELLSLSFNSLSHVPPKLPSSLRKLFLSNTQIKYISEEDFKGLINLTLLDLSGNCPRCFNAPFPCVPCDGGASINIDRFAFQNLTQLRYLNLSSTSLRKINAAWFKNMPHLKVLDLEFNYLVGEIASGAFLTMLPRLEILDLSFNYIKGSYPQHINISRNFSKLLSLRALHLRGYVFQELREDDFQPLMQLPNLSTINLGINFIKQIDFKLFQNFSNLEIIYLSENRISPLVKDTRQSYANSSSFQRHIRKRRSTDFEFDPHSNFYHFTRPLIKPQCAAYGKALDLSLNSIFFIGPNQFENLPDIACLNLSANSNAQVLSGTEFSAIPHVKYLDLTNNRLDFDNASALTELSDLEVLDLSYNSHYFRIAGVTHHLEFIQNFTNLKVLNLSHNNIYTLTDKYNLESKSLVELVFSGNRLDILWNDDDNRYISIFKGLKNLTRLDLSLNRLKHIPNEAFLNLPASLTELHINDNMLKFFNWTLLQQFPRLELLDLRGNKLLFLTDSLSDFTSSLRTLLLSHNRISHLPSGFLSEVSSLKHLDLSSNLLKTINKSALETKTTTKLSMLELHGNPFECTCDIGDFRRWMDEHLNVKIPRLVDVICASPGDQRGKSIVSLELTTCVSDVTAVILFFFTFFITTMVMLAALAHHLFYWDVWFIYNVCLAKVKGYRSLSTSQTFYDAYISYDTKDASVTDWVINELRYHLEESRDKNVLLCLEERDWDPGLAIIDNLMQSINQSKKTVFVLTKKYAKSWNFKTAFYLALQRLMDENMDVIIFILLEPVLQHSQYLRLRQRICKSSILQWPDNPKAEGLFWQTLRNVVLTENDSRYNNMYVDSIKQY
How it was run: as §1

[4] = HEK-Blue cells overexpressing human TLR9, stimulated with ODN2006 5 nM, read-out: TLR 9 IC50

Row | Compound | IC50 [1] [nM] | IC50 [2] [nM] | IC50 [2, 4] [nM] | IC50 [3] [nM] | IC50 ([2]; HEK-Blue human TLR9 reporter cells) [nM]
1 | Cn1c(-c2ccc(S(C)(=O)=O)cc2)nc2cc(C3CCN(C4CC5CCC(C4)N5C4COC4)CC3)c(F)cc21 (single isomer, unassigned) [Example 254, 6-fluoro-1-methyl-2-(4-(methylsulfonyl)phenyl)-5-(1-(8-(oxetan-3-yl)-8-azabicyclo[3.2.1]octan-3-yl)piperidin-4-yl)-1H-benzo[d]imidazole] | > 50000 | 5300 | 5310 | > 50000 | –
2 | Cn1c(-c2ccc(S(C)(=O)=O)cc2)nc2cc(C3CCN(C4CC5CCC(C4)N5C4CCOCC4)CC3)c(F)cc21 (single isomer, unassigned) [Example 255, 6-fluoro-1-methyl-2-(4-(methylsulfonyl)phenyl)-5-(1-(8-(tetrahydro-2H-pyran-4-yl)-8-azabicyclo[3.2.1]octan-3-yl)piperidin-4-yl)-1H-benzo[d]imidazole] | > 50000 | 72 | 72 | > 50000 | –
3 | CC(C)CN1C2CCC1CC(N1CCC(c3ccc4nc(-c5ccc(S(C)(=O)=O)cc5)n(C)c4c3F)CC1)C2 (single isomer, unassigned) [Example 267, 7-fluoro-6-(1-(8-isobutyl-8-azabicyclo[3.2.1]octan-3-yl)piperidin-4-yl)-1-methyl-2-(4-(methylsulfonyl)phenyl)-1H-benzo[d]imidazole] | > 50000 | 350 | 347 | > 50000 | –
4 | Cn1c(-c2ccc(S(C)(=O)=O)cc2)nc2ccc(C3CCN(C4CC5CCC(C4)N5C4CCC4)CC3)c(F)c21 (single isomer, unassigned) [Example 271, 6-(1-(8-cyclobutyl-8-azabicyclo[3.2.1]octan-3-yl)piperidin-4-yl)-7-fluoro-1-methyl-2-(4-(methylsulfonyl)phenyl)-1H-benzo[d]imidazole] | 31600 | 410 | 407 | > 50000 | –

Stronger by IC50 [1], values ahead:

Row | IC50 [1] [nM] | IC50 [2] [nM] | IC50 [2, 4] [nM] | IC50 [3] [nM] | IC50 ([2]; HEK-Blue human TLR9 reporter cells) [nM] | Compound
5 | 17600 | 320 | 315 | > 50000 | – | Cn1c(-c2ccc(S(C)(=O)=O)cc2)nc2cc(C3CCN(C4CC5CCC(C4)N5C4CCOCC4)CC3)c(F)cc21 (single isomer, unassigned) [Example 256, 6-fluoro-1-methyl-2-(4-(methylsulfonyl)phenyl)-5-(1-(8-(tetrahydro-2H-pyran-4-yl)-8-azabicyclo[3.2.1]octan-3-yl)piperidin-4-yl)-1H-benzo[d]imidazole]
6 | 18600 | 97 | 97 | > 50000 | – | CC(C)CN1C2CCC1CC(N1CCC(c3ccc4nc(-c5ccc(S(C)(=O)=O)cc5)n(C)c4c3F)CC1)C2 (single isomer, unassigned) [Example 266, 7-fluoro-6-(1-(8-isobutyl-8-azabicyclo[3.2.1]octan-3-yl)piperidin-4-yl)-1-methyl-2-(4-(methylsulfonyl)phenyl)-1H-benzo[d]imidazole]
7 | 17700 | 65 | 65 | > 50000 | – | Cn1c(-c2ccc(S(C)(=O)=O)cc2)nc2ccc(C3CCN(C4CC5CCC(C4)N5C4CCC4)CC3)c(F)c21 (single isomer, unassigned) [Example 270, 6-(1-(8-cyclobutyl-8-azabicyclo[3.2.1]octan-3-yl)piperidin-4-yl)-7-fluoro-1-methyl-2-(4-(methylsulfonyl)phenyl)-1H-benzo[d]imidazole]
8 | 1500 | 170 | 167 | > 50000 | – | COCCN1C2CCC1CC(N1CCC(c3ccc4nc(-c5ccc(S(C)(=O)=O)cc5)n(C)c4c3F)CC1)C2 (single isomer, unassigned) [Example 276, 7-fluoro-6-(1-(8-(2-methoxyethyl)-8-azabicyclo[3.2.1]octan-3-yl)piperidin-4-yl)-1-methyl-2-(4-(methylsulfonyl)phenyl)-1H-benzo[d]imidazole]
9 | 1000 | 270 | 269 | 16300 | – | COCCN1C2CCC1CC(N1CCC(c3ccc4nc(-c5ccc(S(C)(=O)=O)cc5)n(C)c4c3F)CC1)C2 (single isomer, unassigned) [Example 277, 7-fluoro-6-(1-(8-(2-methoxyethyl)-8-azabicyclo[3.2.1]octan-3-yl)piperidin-4-yl)-1-methyl-2-(4-(methylsulfonyl)phenyl)-1H-benzo[d]imidazole]
10 | 7100 | – | 108 | > 50000 | 110 | Cn1c(-c2ccc(S(C)(=O)=O)cc2)nc2c(F)cc(C3CCN(C4CC5CCC(C4)N5CC4CC4)CC3)cc21 (single isomer, unassigned) [Example 282, 6-(1-(8-(cyclopropylmethyl)-8-azabicyclo[3.2.1]octan-3-yl)piperidin-4-yl)-4-fluoro-1-methyl-2-(4-(methylsulfonyl)phenyl)-1H-benzo[d]imidazole]
